# Results taken from PubChem BioAssay AID179 (DTP/NCI, 2004).
# Values joined by “and” are separate entries in the source; they are usually repeats but may differ in a detail not shown here. Identical values can stand only once. Active and inactive are the calls of the source.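 How the source made its calls: active means compounds giving half or more protection of infected cells from virus-caused growth loss, again on retest; inactive means the rest.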 Where a SMILES comes first, the peptide text is derived from it. [ ]: non-standard residue; d: D form. The star is where a group is joined. Ac5c = NC1(C(=O)O)CCCC1; Boc = CC(C)(C)OC(=O)*; tBu = CC(C)(C)*
# Test system: CEM cells HIV-1 protection, formazan growth assay
# Test: NCI AIDS Antiviral Assay
# Conditions: for IC50: measured here: growth of uninfected CEM cells
# How it was run: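 Human CEM cells, uninfected and HIV-1-infected, received five drug concentrations, and growth was read by soluble formazan assay. Compounds giving at least 50% protection were retested; reproducible 100% protection defined confirmed active.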
SMILES,EC50 [µM],IC50,outcome
N/N=C(\c1ccccc1)c1cccs1,> 200,> 200 µM,–
CC1=C(C(=O)NCc2ccccc2)C(c2ccccc2C)C(C(=O)NCc2ccccc2)=C(C)N1,> 21.4,> 21.4 µM,–
CC(=O)O[C@@H]1CCN(C(=O)C(NC(=O)OC(C)(C)C)C(C)C)[C@@H]1C(O)CC(=O)O (some centres not stated),> 200,> 200 µM,–
CCCCCCCCCCCCCCCC(=O)OCC(COP(=O)(O)OCCNC(=O)CCSSc1ccccn1)OC(=O)CCCCCCCCCCCCCCC (configuration not stated),> 50.1,37.2 µM,–
Nc1nc2c(c(=O)[nH]1)N1CN(c3ccc(C(=O)NC(CCC(=O)O)C(=O)O)cc3)CCC1CN2 (configuration not stated),> 347,60.3 µM,–
COc1c(-c2ccc(F)cc2)oc2c(CC(=O)O)cccc2c1=O,> 200,162 µM,–
Cc1cc(-c2ccccc2)[s+]s1,> 200,89.1 µM and 174 µM,–
COC(=O)C1C(=O)C(C(=O)OC)C23C(C)CCC12C(C(=O)OC)C(=O)C3C(=O)OC (configuration not stated),> 46.8,> 46.8 µM,–
CN(C)c1ccc(/C=C(\NC(=O)c2ccccc2)C(=O)NC(Cc2c[nH]c3ccccc23)C(=O)O)cc1 (configuration not stated),> 100,> 100 µM,–
CCOc1ccc(N2CC(=O)N3CCCC(C)N3C(=O)C2)cc1 (configuration not stated),> 200,170 µM,–
CC(C)N1CNC(=O)C12CCN(CC1COc3ccccc3O1)CC2 (configuration not stated),> 200,> 200 µM,–
Cc1cc(-c2ccc(N=Nc3cc(S(=O)(=O)O)c4cccnc4c3O)c(C)c2)ccc1N=Nc1cc(S(=O)(=O)O)c2cccnc2c1O,60.3,85.1 µM,–
COc1cc2c(c(OC)c1OC)-c1ccc(OC)c(=O)cc1[C@@H](NC(C)=O)CC2,–,–,inactive
CC(C)(CNC(=O)/C(Cl)=C(/Cl)C(=O)O)CNC(=O)/C(Cl)=C(/Cl)C(=O)O,> 200,17 µM,–
Cn1cc(NC(=O)Nc2cc(C(=O)Nc3cc(C(=O)Nc4ccc5cc(S(=O)(=O)O)cc(S(=O)(=O)O)c5c4)n(C)n3)n(C)c2)cc1C(=O)Nc1cc(C(=O)Nc2ccc3cc(S(=O)(=O)O)cc(S(=O)(=O)O)c3c2)n(C)n1,5.5,> 100 µM,–
CCOC(=O)C(Sc1ccccc1)c1c(OC)cc(=O)oc1/C=[N+](/[O-])c1ccc(N(C)C)cc1 (configuration not stated),–,–,inactive
CCOC(=O)C1=NN(c2ccc(C)cc2)C2(c3ccccc3)C=C(c3ccccc3)N(C)CCN12 (configuration not stated),> 200,145 µM,–
CN1CCN(c2n[nH]c(=O)c3c2nnn3Cc2ccccc2)CC1,> 200,> 200 µM,–
COC(=O)C12N=NN(c3ccccc3)C1(C(=O)OC)C1CCC2C1 (configuration not stated),> 200,> 200 µM,–
NCC1(N2CCOCC2)C2CCCC21CNc1ccccc1 (configuration not stated),> 24,> 24 µM,–
Cc1nc2cc([N+](=O)[O-])ccc2c(NCCCN(C)C)c1C,> 200,3.55 µM,–
N#Cc1c(-c2ccccc2)nc(-c2ccccc2)sc1=S,> 100,> 100 µM,–
COc1cc(C2SCC(=O)N2c2ccc(-c3ccc(-n4c(-c5ccccc5)nc5ccccc5c4=O)cc3)cc2)ccc1O (configuration not stated),> 200,67.6 µM,–
C=CC[C@@]1(C#N)C[C@H](C[C@]2(C#N)C[C@H](CCl)OC(C)(C)O2)OC(C)(C)O1,> 200,107 µM,–
COc1ccc(/C=C(\C2=NC(=O)CS2)c2nc3ccccc3[nH]2)cc1,> 20.9,> 20.9 µM,–
CC(OC(=O)C(CC(=O)OC(C)(C)C)NC(=O)OC(C)(C)C)C(=O)OCc1ccccc1 (configuration not stated),> 200,> 200 µM,–
COC(=O)C1CCCC2(C1)OCCO2 (configuration not stated),> 251,> 251 µM,–

SMILES,EC50 [µM],IC50,outcome
COC(=O)CCC1(CCC(=O)OC)CCCCCCC(CCC(=O)OC)(CCC(=O)OC)C(=O)C1=O,> 200,> 200 µM,–
CC(C)CCC[C@@H](C)[C@H]1CC[C@H]2[C@@H]3CCC4C[C@@H](OP(=O)(O)OCCC=C(c5cc(Cl)c(O)c(C(=O)O)c5)c5cc(Cl)c(O)c(C(=O)O)c5)CC[C@]4(C)[C@H]3CC[C@]12C (some centres not stated),> 200,33.9 µM,–
CCC(=O)C1=C(OC(C)=O)C2Cc3c(n(C)c4ccccc34)C(C1)N2C (configuration not stated),–,–,inactive
CC(=O)NC(CCCOC(C)=O)C(=O)NC(CCCOC(C)=O)C(=O)NC(CCCOC(C)=O)C(=O)NC(Cc1ccc([N+](=O)[O-])cc1)C(=O)NCC(=O)OCc1ccccc1 (configuration not stated),> 200,> 200 µM,–
CC(=O)NC(C)(C)C1CC=C(C)/C(=N\O)C1 (configuration not stated),> 1120,776 µM,–
CN1OC2OC(=O)OC2[C@H]1[C@H]1O[C@H](c2ccccc2)OC1(C)c1cc(OC(=O)c2ccccc2)ccc1OC(=O)c1ccccc1 (some centres not stated),> 2.34,> 2.34 µM,–
COC(=O)C(C)(C)[C@@H]1OC(=O)N(S(=O)(=O)c2c(C)cc(C)cc2C)[C@H]1C(C)C,> 200,50.1 µM,–
C[C@]12CC[C@H](O)CC1=CC[C@@H]1[C@@H]2CC[C@]2(C)C(=O)CC[C@@H]12,> 126,83.2 µM,–
CCC1c2cc3n(c(=O)c2COC1O)Cc1c-3nc2ccccc2c1Cl (configuration not stated),> 10,6.31 µM,–
CCNc1cc2c3c(c1)CCN3CCC2,> 60.3,10.2 µM,–
CC1C(c2ccc3c(c2)OCO3)c2cc3c(cc2OC1N1CCCCC1)OCO3 (configuration not stated),> 200,33.9 µM,–
CC(=O)C1(c2ccccc2)CCCN(C)CC1 (configuration not stated),–,–,inactive
CCOP(=O)(OCC)C(C(=O)OC)C(=O)C(=O)Nc1cccc([N+](=O)[O-])c1 (configuration not stated),> 617,> 617 µM,–
C=C(C)[C@@H]1CC[C@]2(CNC(=O)CC3(CC(=O)O)CCCC3)CC[C@]3(C)[C@H](CC[C@@H]4[C@@]5(C)CC[C@H](NC(=O)CC6(CC(=O)O)CCCC6)C(C)(C)[C@@H]5CC[C@]43C)[C@@H]12,> 200,13.5 µM,–
C/C(=N/NC(=S)N1CCCCC1)c1cccc(/C(C)=N\NC(=S)N2CCCCC2)n1,> 200,13.2 µM,–
COC1OC2=CCC3C(=O)NC(=O)C3C2[C@H](OC)C1OC (some centres not stated),–,–,inactive
COc1cccc2c1OC1c3ccccc3OCC1C2 (configuration not stated),> 200,97.7 µM,–
Cc1ccccc1Cn1nc2ccccc2cc1=O,> 380,> 380 µM,–
CC[N+](C)(CC)Cc1ccccc1[N+](=O)[O-],> 200,126 µM,–
COC(=O)c1ncn(C(C(=O)OC)C(=O)OC)c1O,> 200,> 200 µM,–
S=C(SSC(=S)N1CCCCC1)N1CCCCC1,> 200,29.5 µM,–
Cc1cc(C(=O)CCCCOc2ccc(C3=NCCO3)cc2)c(C)n1C,–,–,inactive
Cc1cc(NS(=O)(=O)c2ccc(NC(=O)c3cccc4c(Nc5ccc(S(=O)(=O)N=C(N)N)cc5)c5ccccc5nc34)cc2)no1,52.5,53.7 µM,–
CCC(O)(Cc1ccc(OC)cc1)c1ccc(OC)cc1 (configuration not stated),> 200,123 µM,–
O=C(O)CCCCCCCCCCCI,27.5,110 µM,–
CC(=O)OCC1OC(NC(=S)Nn2c(=O)[nH]c3ccccc3c2=O)C(OC(C)=O)C(OC(C)=O)C1OC(C)=O (configuration not stated),> 200,> 200 µM,–
CN1C(=O)C2C=C3CCCCC3=CC2N(C)C1=O (configuration not stated),> 200,> 200 µM,–

SMILES,EC50 [µM],IC50,outcome
O=C(N[C@@H](CSSC[C@H](NC(=O)OCc1ccccc1)C(=O)O)C(=O)O)OCc1ccccc1,> 200,74.1 µM,–
CC(=O)N(CN1C(=O)CCC1C(=O)O)c1ccccc1Cl (configuration not stated),–,–,inactive
CC1CC(C)(C)C2=NCCN21 (configuration not stated),> 1620,> 1620 µM,–
C=C1CC2OC2(C(=O)O[C@H]2CCC3[C@@H]4CCC5=CC(=O)CC[C@]5(C)C4CC[C@@]32C)C1=O (some centres not stated),> 200,7.24 µM,–
NC(=N\N=C/c1ccc(Cl)cc1Cl)/C(N)=N\N=C/c1ccc(Cl)cc1Cl,–,–,inactive
O=C1CN2Cc3c(sc4c3CCCC4)N=C2N1,> 200,138 µM,–
CN(C)c1ccc(/C=C(\NC(=O)c2ccccc2)C(=O)NC(CC(=O)O)C(=O)O)cc1 (configuration not stated),–,–,inactive
Cc1[nH]c(=O)[nH]c(=O)c1N(CCF)CCCl,> 1000,89.1 µM,–
Cc1cc(N(CCC#N)CCC#N)ccc1/C(N=Nc1cccc(Cl)c1)=N/NC(=O)c1cc(Cl)ccc1O,> 200,11.7 µM,–
COc1ccc(C2S/C(=C\c3ccccc3)C(=O)N2NC(=O)Cc2ccccc2)cc1 (configuration not stated),> 23.4,19.1 µM,–
CCCCCCCCCCCCSSC(=S)OC(C)C,> 200,> 200 µM,–
OCC1CCCCN1Cc1nc2ccc(Cl)cc2[nH]1 (configuration not stated),> 200,195 µM,–
CN(C)C(=S)N/N=C(\C(=N/NC(=S)N(C)C)c1ccccn1)c1ccccn1,> 20,1.1 µM,–
Cc1ccc(/C=C2/N=C([Se])N(C)C2=O)cc1,> 18.6,> 18.6 µM,–
NC(=O)c1cc(N(CCO)CCO)c([N+](=O)[O-])cc1[N+](=O)[O-],> 200,> 200 µM,–
O=C(Nc1ccccc1[N+](=O)[O-])C(=O)C(C(=O)c1ccccc1-c1ccccc1)C1OC(=O)c2ccccc21 (configuration not stated),> 50.1,25.7 µM,–
COc1ccc(-c2cc(=O)c3c(C)cc(O)cc3o2)cc1,81.3,115 µM,–
CN1C(=O)C(c2c[nH]c3ccccc23)N(C)C(=O)C1c1c[nH]c2ccccc12 (configuration not stated),> 200,> 200 µM,–
O=S(=O)(c1cc(Cl)ccc1Cl)N1CCN(c2cccc(Cl)c2)CC1,–,–,inactive
CCCCCCCC(=O)NCC(O)CNC(=O)CCCCCCC,–,–,inactive
CC(C)C1C(=O)N(c2c(F)c(F)c(F)c(F)c2F)C(=S)N1CCS(=O)c1ccccc1 (configuration not stated),> 200,9.33 µM,–
N#C/C(=C\c1cc(F)cc(F)c1)c1ccccn1,> 200,26.3 µM,–
S=C(N/N=C/c1ccccc1)NC12CC3CC(CC(C3)C1)C2,–,–,inactive
CC(=O)OC1CC[C@]2(C)C3CC[C@@]4(C)C(CCC4[C@H](C)CCCC(C)C)[C@@H]3CCC2(Br)C1 (some centres not stated),–,–,inactive
CC(OC(C)(C)C)C(NC(=O)C(CCCCNC(=O)OC(C)(C)C)NC(=O)C(Cc1c[nH]c2ccccc12)NC(=O)C(N)Cc1ccccc1)C(=O)NC(Cc1ccccc1)C(=O)NC1(C(=O)O)CCCC1 (configuration not stated) (H-FWK(Boc)T(tBu)F[Ac5c]-OH; configuration not given here),97.7,> 100 µM,–
CC1(O)N2CCCC1(c1ccccc1)CC2 (configuration not stated),> 1150,178 µM,–
